# How the values were obtained:
# giant foxtail [1] = test: Test A postemergence; assay type: in vivo, Setaria faberii
# In short: (§1)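 Visual injury scored 0–100 (100 = complete control) against untreated controls about 10 days after treatment in a greenhouse. Test chemicals, formulated with surfactant in non-phytotoxic solvent, were sprayed on soil preemergence or on 2-10 cm, one- to two-leaf plants postemergence.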
# pigweed [2] = test: Test A postemergence; assay type: in vivo, Amaranthus retroflexus
# In short: as §1
# kochia [3] = test: Test A postemergence; assay type: in vivo, Kochia scoparia; conditions: 1000 g ai/ha, 0 to 100 scale, 0 no effect, 100 complete control
# Excerpt: (§2) Seeds of plant species selected from barnyardgrass (Echinochloa crus-galli), kochia (Kochia scoparia), ragweed (common ragweed, Ambrosia elatior), Italian ryegrass (Lolium multiflorum), large (Lg) crabgrass (Digitaria sanguinalis), giant foxtail (Setaria faberii), morningglory (Ipomoea spp.), pigweed (Amaranthus retroflexus), velvetleaf (Abutilon theophrasti), wheat (Triticum aestivum), and corn (Zea mays) were planted into a blend of loam soil and sand and treated preemergence with a directed soil spray using test chemicals formulated in a non-phytotoxic solvent mixture which included a surfactant.
# (§3) At the same time, plants selected from these crop and weed species and also blackgrass (Alopecurus myosuroides), and galium (catchweed bedstraw, Galium aparine) were planted in pots containing the same blend of loam soil and sand and treated with postemergence applications of test chemicals formulated in the same manner. Plants ranged in height from 2 to 10 cm and were in the one- to two-leaf stage for the postemergence treatment. Treated plants and untreated controls were maintained in a greenhouse for approximately 10 days, after which time all treated plants were compared to untreated controls and visually evaluated for injury. Plant response ratings, summarized in Table A, are based on a 0 to 100 scale where 0 is no effect and 100 is complete control. A dash (-) response means no test result.
# galium = test: Test A postemergence; assay type: in vivo, Galium aparine; conditions: 1000 g ai/ha, 0 to 100 scale, 0 no effect, 100 complete control
# Excerpt: as §2, §3
# barnyardgrass [4] = test: Test A postemergence; assay type: in vivo, Echinochloa crus-galli
# In short: as §1
# Italian ryegrass [5] = test: Test A preemergence; assay type: in vivo, Lolium multiflorum; conditions: 1000 g ai/ha, 0 to 100 scale, 0 no effect, 100 complete control, approx. 10 days
# Excerpt: as §2, §3
# kochia [6] = test: Test A preemergence; assay type: in vivo, Kochia scoparia; conditions: 1000 g ai/ha, 0 to 100 scale, 0 no effect, 100 complete control, approx. 10 days
# Excerpt: as §2, §3
# pigweed [7] = test: Test A preemergence; assay type: in vivo, Amaranthus retroflexus; conditions: for Pigweed plant response rating (0 to 100 scale): 125 g ai/ha
# In short: as §1
# ragweed [8] = test: Test A postemergence; assay type: in vivo, Ambrosia elatior; conditions: 1000 g ai/ha, 0 to 100 scale, 0 no effect, 100 complete control
# Excerpt: as §2, §3
# blackgrass = test: Test A postemergence; assay type: in vivo, Alopecurus myosuroides; conditions: 1000 g ai/ha, 0 to 100 scale, 0 no effect, 100 complete control
# Excerpt: as §2, §3
# barnyardgrass [9] = test: Test A preemergence; assay type: in vivo, Echinochloa crus-galli; conditions: for Barnyardgrass plant response rating (0 to 100 scale, 0 is no effect, 100 is complete control): 125 g ai/ha
# In short: as §1
# wheat [10] = test: Test A postemergence; assay type: in vivo, Triticum aestivum
# In short: as §1
# ragweed [11] = test: Test A preemergence; assay type: in vivo, Ambrosia elatior; conditions: 1000 g ai/ha, 0 to 100 scale, 0 no effect, 100 complete control, approx. 10 days
# Excerpt: as §2, §3
# Italian ryegrass [12] = test: Test A postemergence; assay type: in vivo, Lolium multiflorum; conditions: 1000 g ai/ha, 0 to 100 scale, 0 no effect, 100 complete control
# Excerpt: as §2, §3
# giant foxtail [13] = test: Test A preemergence; assay type: in vivo, Setaria faberii; conditions: for Foxtail, Giant plant response rating (0 to 100 scale): 125 g ai/ha
# In short: as §1
# corn [14] = test: Test A postemergence; assay type: in vivo, Zea mays
# In short: as §1
# morningglory [15] = test: Test A postemergence; assay type: in vivo, Ipomoea spp.
# In short: as §1
# sedge, umbrella = test: Test B flooded paddy test; assay type: in vivo, Cyperus difformis; conditions: Flood, 250 g ai/ha; 0 to 100 scale where 0 is no effect and 100 is complete control
# In short: (§4)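 Seedlings are raised to two leaves, flooded to a depth of 3 cm and dosed by adding the compound to the floodwater. Water level is kept constant, and plants are scored visually versus controls 13–15 days later (0 = no effect, 100 = complete control).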
# corn [16] = test: Test A preemergence; assay type: in vivo, Zea mays; conditions: for Corn plant response rating (0 to 100 scale): 125 g ai/ha; for Corn plant response rating: 500 g ai/ha, 0 to 100 scale where 0 is no effect and 100 is complete control
# In short: as §1
# wheat [17] = test: Test A preemergence; assay type: in vivo, Triticum aestivum; conditions: for Wheat plant response rating (0 to 100 scale): 125 g ai/ha; for Wheat plant response rating: 500 g ai/ha, 0 to 100 scale where 0 is no effect and 100 is complete control
# In short: as §1
# velvetleaf [18] = test: Test A preemergence; assay type: in vivo, Abutilon theophrasti; conditions: for Velvetleaf plant response rating (0 to 100 scale): 125 g ai/ha; for Velvetleaf plant response rating: 500 g ai/ha, 0 to 100 scale where 0 is no effect and 100 is complete control
# In short: as §1
# large (Lg) crabgrass [19] = test: Test A postemergence; assay type: in vivo, Digitaria sanguinalis
# In short: as §1
# rice = test: Test B flooded paddy test; assay type: in vivo, Oryza sativa; conditions: Flood, 250 g ai/ha; 0 to 100 scale where 0 is no effect and 100 is complete control
# In short: as §4
# morningglory [20] = test: Test A preemergence; assay type: in vivo, Ipomoea spp.; conditions: for Morningglory plant response rating (0 to 100 scale): 125 g ai/ha; for Morningglory plant response rating: 500 g ai/ha, 0 to 100 scale where 0 is no effect and 100 is complete control
# In short: as §1
# barnyardgrass [21] = test: Test B flooded paddy test; assay type: in vivo, Echinochloa crus-galli; conditions: Flood, 250 g ai/ha; 0 to 100 scale where 0 is no effect and 100 is complete control
# In short: as §4
# velvetleaf [22] = test: Test A postemergence; assay type: in vivo, Abutilon theophrasti
# In short: as §1
# Heteranthera limosa = test: Test B flooded paddy test; assay type: in vivo; conditions: Flood, 250 g ai/ha; 0 to 100 scale where 0 is no effect and 100 is complete control
# In short: as §4
# large (Lg) crabgrass [23] = test: Test A preemergence; assay type: in vivo, Digitaria sanguinalis; conditions: for Crabgrass, Large plant response rating (0 to 100 scale): 125 g ai/ha; for Crabgrass, Large plant response rating: 500 g ai/ha, 0 to 100 scale where 0 is no effect and 100 is complete control
# In short: as §1
# [24] = 1000 g ai/ha, 0 to 100 scale, 0 no effect, 100 complete control
# [25] = 1000 g ai/ha, 0 to 100 scale, 0 no effect, 100 complete control, approx. 10 days
# [26] = 125 g ai/ha, 0 to 100 scale, 0 no effect, 100 complete control
# [27] = 500 g ai/ha, 0 to 100 scale where 0 is no effect and 100 is complete control
smiles,measurement,setting,value
CCN(CC)C(=O)c1cccc(Oc2ncc(Cl)cn2)c1-n1cc(C(F)(F)F)cn1 [Compound 263],"Plant response rating, Foxtail, Giant",giant foxtail [1]; [24],0
same,"Plant response rating, Pigweed",pigweed [2]; [24],10
same,"Plant response rating, Kochia",kochia [3],10
same,"Plant response rating, Galium",galium,10
same,"Plant response rating, Barnyardgrass",barnyardgrass [4]; [24],0
same,"Ryegrass, Italian plant response rating",Italian ryegrass [5],0
same,Kochia plant response rating,kochia [6],20
same,Pigweed plant response rating,pigweed [7]; [25],10
same,"Plant response rating, Ragweed",ragweed [8],0
same,"Plant response rating, Blackgrass",blackgrass,20
same,Barnyardgrass plant response rating,barnyardgrass [9]; [25],0
same,"Plant response rating, Wheat",wheat [10]; [24],0
same,Ragweed plant response rating,ragweed [11],0
same,"Plant response rating, Ryegrass, Italian",Italian ryegrass [12],0
same,"Foxtail, Giant plant response rating",giant foxtail [13]; [25],50
same,"Plant response rating, Corn",corn [14]; [24],0
Fc1cccc(Oc2ncc(Cl)cn2)c1-n1cc(-c2cccc(C(F)(F)F)c2)nn1 [Compound 276],"Plant response rating, Foxtail, Giant",giant foxtail [1]; [24],20
same,"Plant response rating, Pigweed",pigweed [2]; [24],80
same,"Plant response rating, Kochia",kochia [3],40
same,"Plant response rating, Galium",galium,20
same,"Plant response rating, Barnyardgrass",barnyardgrass [4]; [24],20
same,"Ryegrass, Italian plant response rating",Italian ryegrass [5],0
same,Kochia plant response rating,kochia [6],0
same,Pigweed plant response rating,pigweed [7]; [25],0
same,"Plant response rating, Ragweed",ragweed [8],30
same,"Plant response rating, Blackgrass",blackgrass,20
same,Barnyardgrass plant response rating,barnyardgrass [9]; [25],0
same,"Plant response rating, Wheat",wheat [10]; [24],0
same,Ragweed plant response rating,ragweed [11],0
same,"Plant response rating, Ryegrass, Italian",Italian ryegrass [12],0
same,"Foxtail, Giant plant response rating",giant foxtail [13]; [25],0
same,"Plant response rating, Corn",corn [14]; [24],10
CCOC(=O)c1cnn(-c2c(C#N)cccc2Oc2ncc(Br)cn2)c1 [Compound 294],"Plant response rating, Foxtail, Giant",giant foxtail [1]; [26],10
same,"Plant response rating, Foxtail, Giant",giant foxtail [1]; [27],50
same,"Plant response rating, Pigweed",pigweed [2]; [26],60
same,"Plant response rating, Pigweed",pigweed [2]; [27],90
same,"Plant response rating, Morningglory",morningglory [15]; [26],20
same,"Plant response rating, Morningglory",morningglory [15]; [27],30
same,"Plant response rating, Barnyardgrass",barnyardgrass [4]; [26],20
same,"Plant response rating, Barnyardgrass",barnyardgrass [4]; [27],60
same,"Plant response rating, Sedge, Umbrella","sedge, umbrella",0
same,Corn plant response rating (0 to 100 scale),corn [16],0
same,Corn plant response rating,corn [16],0
same,Pigweed plant response rating (0 to 100 scale),pigweed [7],100
same,Pigweed plant response rating,pigweed [7]; [27],100
same,Wheat plant response rating (0 to 100 scale),wheat [17],0
same,Wheat plant response rating,wheat [17],0
same,Velvetleaf plant response rating (0 to 100 scale),velvetleaf [18],10
same,Velvetleaf plant response rating,velvetleaf [18],70
same,"Barnyardgrass plant response rating (0 to 100 scale, 0 is no effect, 100 is complete control)",barnyardgrass [9],0
same,Barnyardgrass plant response rating,barnyardgrass [9]; [27],20
same,"Plant response rating, Crabgrass, Large",large (Lg) crabgrass [19]; [26],0
same,"Plant response rating, Crabgrass, Large",large (Lg) crabgrass [19]; [27],50
same,"Plant response rating, Rice",rice,0
same,"Plant response rating, Wheat",wheat [10]; [26],0
same,"Plant response rating, Wheat",wheat [10]; [27],40
same,Morningglory plant response rating (0 to 100 scale),morningglory [20],0
same,Morningglory plant response rating,morningglory [20],0
same,"Foxtail, Giant plant response rating (0 to 100 scale)",giant foxtail [13],30
same,"Foxtail, Giant plant response rating",giant foxtail [13]; [27],70
same,"Plant response rating, Barnyardgrass",barnyardgrass [21],0
same,"Plant response rating, Velvetleaf",velvetleaf [22]; [26],50
same,"Plant response rating, Velvetleaf",velvetleaf [22]; [27],60
same,"Plant response rating, Ducksalad",Heteranthera limosa,0
same,"Plant response rating, Corn",corn [14]; [26],0
same,"Plant response rating, Corn",corn [14]; [27],40
same,"Crabgrass, Large plant response rating (0 to 100 scale)",large (Lg) crabgrass [23],30
same,"Crabgrass, Large plant response rating",large (Lg) crabgrass [23],60
NN=Cc1cccc(Oc2ncc(Cl)cn2)c1-n1cc(Cl)cn1 [Compound 295],"Plant response rating, Foxtail, Giant",giant foxtail [1]; [26],0
same,"Plant response rating, Foxtail, Giant",giant foxtail [1]; [27],0
same,"Plant response rating, Pigweed",pigweed [2]; [26],40
same,"Plant response rating, Pigweed",pigweed [2]; [27],70
same,"Plant response rating, Morningglory",morningglory [15]; [26],40
same,"Plant response rating, Morningglory",morningglory [15]; [27],40
same,"Plant response rating, Barnyardgrass",barnyardgrass [4]; [26],0
same,"Plant response rating, Barnyardgrass",barnyardgrass [4]; [27],0
same,"Plant response rating, Sedge, Umbrella","sedge, umbrella",0
same,Corn plant response rating (0 to 100 scale),corn [16],0
same,Corn plant response rating,corn [16],0
same,Pigweed plant response rating (0 to 100 scale),pigweed [7],20
same,Pigweed plant response rating,pigweed [7]; [27],60
same,Wheat plant response rating (0 to 100 scale),wheat [17],0
same,Wheat plant response rating,wheat [17],0
same,Velvetleaf plant response rating (0 to 100 scale),velvetleaf [18],0
same,Velvetleaf plant response rating,velvetleaf [18],0
same,"Barnyardgrass plant response rating (0 to 100 scale, 0 is no effect, 100 is complete control)",barnyardgrass [9],0
same,Barnyardgrass plant response rating,barnyardgrass [9]; [27],0
same,"Plant response rating, Crabgrass, Large",large (Lg) crabgrass [19]; [26],0
same,"Plant response rating, Crabgrass, Large",large (Lg) crabgrass [19]; [27],0
same,"Plant response rating, Rice",rice,0
same,"Plant response rating, Wheat",wheat [10]; [26],0
same,"Plant response rating, Wheat",wheat [10]; [27],0
same,Morningglory plant response rating (0 to 100 scale),morningglory [20],0
same,Morningglory plant response rating,morningglory [20],0
same,"Foxtail, Giant plant response rating (0 to 100 scale)",giant foxtail [13],0
same,"Foxtail, Giant plant response rating",giant foxtail [13]; [27],0
same,"Plant response rating, Barnyardgrass",barnyardgrass [21],0
same,"Plant response rating, Velvetleaf",velvetleaf [22]; [26],30
same,"Plant response rating, Velvetleaf",velvetleaf [22]; [27],30
same,"Plant response rating, Ducksalad",Heteranthera limosa,0
same,"Plant response rating, Corn",corn [14]; [26],0
same,"Plant response rating, Corn",corn [14]; [27],0
same,"Crabgrass, Large plant response rating (0 to 100 scale)",large (Lg) crabgrass [23],0
same,"Crabgrass, Large plant response rating",large (Lg) crabgrass [23],0

# — patent US9695155B2, “Herbicidal substituted pyrimidinyloxy benzene compounds” (E. I. DU PONT DE NEMOURS AND COMPANY, priority 2013, dated 2017)
